Source: patent US11046945B2, “Labeled glutaminase proteins, isolated glutaminase protein mutants, methods of use, and kit” (CORNELL UNIVERSITY, priority 2013, dated 2021)

Molecular target: T1, GAC (Mus musculus, UniProt D3Z7P3)
T1 construct: plasmid (residues 72-603 for GAC, 72-674 for KGA); His-tag with thrombin cleavage site (N, cleaved yes); made in house; host or cells: pET23a vector
T1 sequence (D3Z7P3 72-603 isoform D3Z7P3-2): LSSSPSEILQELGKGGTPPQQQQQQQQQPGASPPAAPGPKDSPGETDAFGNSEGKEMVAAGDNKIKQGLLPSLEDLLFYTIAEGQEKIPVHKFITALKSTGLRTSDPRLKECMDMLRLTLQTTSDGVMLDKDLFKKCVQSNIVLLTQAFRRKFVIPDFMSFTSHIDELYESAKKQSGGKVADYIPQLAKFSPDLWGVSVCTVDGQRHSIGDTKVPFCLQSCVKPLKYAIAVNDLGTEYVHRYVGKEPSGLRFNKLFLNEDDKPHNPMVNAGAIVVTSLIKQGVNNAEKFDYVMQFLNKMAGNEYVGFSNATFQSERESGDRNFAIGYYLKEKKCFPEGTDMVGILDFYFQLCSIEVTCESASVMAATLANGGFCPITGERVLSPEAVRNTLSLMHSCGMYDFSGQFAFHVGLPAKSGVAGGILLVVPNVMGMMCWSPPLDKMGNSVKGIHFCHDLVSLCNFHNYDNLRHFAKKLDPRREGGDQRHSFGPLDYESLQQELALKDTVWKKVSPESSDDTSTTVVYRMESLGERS
Assay: Real-time glutaminase activity assay coupled to GDH (NADH fluorescence)
Type: biochemical
Conditions: for inhibition of GAC activity: 10 nM 488-GAC or unlabeled WT-GAC, 20 mM glutamine, 50 mM phosphate
Procedure: [formula] where F is the normalized fluorescence at given drug concentration (i.e., F/F0), and Fsat is the normalized fluorescence at saturating concentrations of drug, as shown in FIG. 7A. Real-time activity assays were prepared in 1 mL samples, where 10 units of glutamate dehydrogenase (Sigma) and 2 mM NAD^+ (Sigma) was prepared in 50 mM Tris-Acetate pH=8.5, 0.1 mM EDTA and equilibrated at 20° C. 10 nM WT GAC was added and allowed to equilibrate 2 minutes before beginning to monitor fluorescence of 488-GAC (490 nm excitation, 520 nm emission) and NADH fluorescence (340 nm excitation, 490 nm emission). Appropriate dilutions of 968 or BPTES prepared in DMSO were injected after 30 seconds and allowed to equilibrate for 2 minutes before 180 μL of a solution of 333 mM K2HPO4, 133 mM glutamine, 50 mM Tris-Acetate pH 8.5, 0.1 mM EDTA was added to initiate GAC activation. The activity of GAC was indirectly measured by the NADH produced by the added glutamate dehydrogenase, which converts the product of glutaminase activity, glutamate, to α-ketoglutarate and ammonia through reducing NAD^+ to NADH. Because solutions containing glutamine undergo non-enzymatic degradation to glutamate, samples were further analyzed by subtracting the evolved NADH produced by glutaminase in the presence of 968, BPTES, or the equivalent volume of DMSO as a control, by the evolved NADH produced in the absence of glutaminase under identical experimental conditions. Evolved NADH was quantified using a standard curve of freshly prepared NADH (Sigma) in 50 mM Tris-Acetate pH=8.5, 0.1 mM EDTA.
Procedures for the described real-time binding and inhibition assays were adapted for 96-well microtiter format with minor alterations. Briefly, 2 μL of inhibitor or DMSO was distributed across the 96-well plate followed by addition of 200 μL 10 nM 488-GAC, unlabeled WT-GAC, or no added GAC as a negative control in 50 mM Tris-Acetate pH 8.5, 0.1 mM EDTA and immediate monitoring of 488 fluorescence (490 nm/520 nm excitation/emission, 5 nm/20 nm excitation/emission slits). […]

| SMILES | inhibition of GAC activity | inhibition of GAC activity at 5 nM versus 50 nM GAC (GAC decreased from 50 nM to 5 nM, 968 pre-incubated) |
| --- | --- | --- |
| CN(C)c1ccc(C2Nc3ccc4ccccc4c3C3=C2C(=O)CC(C)(C)C3)cc1Br (stereo not drawn) [compound 968] | dose-dependent inhibition | higher efficacy and potency |
| O=C(Cc1ccccc1)Nc1nnc(CCSCCc2nnc(NC(=O)Cc3ccccc3)s2)s1 [BPTES] | potent inhibition | – |
